This note sets out measurements from publication PMC13199644, “Optimized Quantitative Bacterial Two-Hybrid (qB2H) for Protein–Protein Interaction Assessment” (Computational and Structural Biotechnology Journal, 2026).

The subject of assay [1] is ASF1BN. The assay is described as follows: qB2H fluorescent reporter (eGFP MFI, flow cytometry or colonies), ASF1BN, v1 to v3. The assay is classed as cell-based, human. To be noted: relative to ip3_mut3A and ip1. As for the experimental part:
qB2H experiments using a fluorescent reporter
(§1) Precultures of untransformed (for intrinsic fluorescence evaluation) and transformed SB39 cells were diluted (3 μl into 300 μl of fresh medium) in 2-ml microtubes and grown in ThermoMixer C (Eppendorf; 37 °C at 900 rpm) for 2 h. Cultures with an OD600 of approximately 0.5 were then mixed with 100 μl of the same medium containing 4× inducer concentration. Final inducer concentrations, chosen on the basis of maximal signal output, were 20 μM IPTG for v1 or v2 and 200 μM IPTG plus […] for v3 series. The induced cultures were grown overnight at 18 °C, diluted (1 μl) in freshly filtered (0.22 μm) phosphate-buffered saline buffer (1 ml per OD unit), and analyzed using guava easyCyte HT (488-nm blue laser). The gating for event analysis was set to minimize background noise (fewer than 100 gated events per 10 μl of sterile phosphate-buffered saline). Ten thousand events were collected per culture, and the MFI was recorded. […]
(§2) MFI(x) represents the MFI of a given condition or culture. MFI(low) corresponds to the fluorescence produced by SB39 cells cotransformed with VN519 and VN550, indicating no detectable interaction (Kd > 100,000 nM). […]

Assay [2] concerns ASF1BN. The assay is described as follows: qB2H v4 binder selection, short-term batch, kanamycin, NGS enrichment/frequency. The class given is cell-based, bacterial. To be noted: 4 to 5 h, SB39 v4, TF/T0 frequency ratio. As for the experimental part:
(§3) Design and selection of binders
(§4) An AI pipeline integrating RFdiffusion, ProteinMPNN, and AlphaFold2 (detailed in Supplementary Methods) was implemented to design N-terminal extensions of ip4_mutG, a weak ASF1 binder (Kd ~10 μM). Briefly, N-terminal extensions of 11 to 16 amino acids were fused to linkers (GSEAK, GSEK, or GSK) and appended to the ip4_mutG coding sequence. Rational designs and controls (flexible N-terminal extensions) were incorporated into the library, ordered as oligonucleotide pools (oPools, IDT), and cloned into the v4 series plasmid for transformation into SB39 cells. Library selection was performed in 2 experimental setups: (a) short batch selection and (b) prolonged continuous selection in a turbidostat (Chi.Bio [61]).
(§5) In the batch selection, induced cultures diluted to OD600 = 0.05 were exposed to kanamycin concentrations ranging from 0 to 348 μg/ml. […] Cultures were maintained at OD600 0.4 for 21 or 29 h, followed by an additional 3-h growth period after sample collection, totaling 24 and 32 h.
(§6) Plasmids extracted from samples taken before (T0) and after selection (TF) were sequenced by NGS (Illumina), and reads corresponding to expected sequences were quantified to assess relative frequencies and enrichment.
Short selection runs (batches)
Glycerol stocks of mixed libraries were inoculated at approximately 18:00 in fresh media and grown overnight at 30 °C, to slow growth kinetics and reduce saturation-related stress (by decreasing the time spent in stationary phase). The grown cultures were diluted to OD600 = 0.05 in 150 mL of LB supplemented with 17 µg/mL chloramphenicol, 200 µM IPTG, 200 ng/mL aTc, and incubated (200 rpm, 37 °C) for 2 h (OD600 ~ 0.5). […] Assuming that sufficiently strong selection pressure can impact population growth over a short term (few hours), only cultures with OD at least 0.5 absorbance units lower than the OD of the culture without kanamycin after 4.5–5 h were retained for NGS analysis (TF-[ X µg/mL kan] samples).
(§7) NGS sample preparation and analysis
(§8) NGS samples were prepared by PCR using primer OR2895 with one of primers from OR2890– OR2894: 98 °C for 1 min; 26 cycles of (98 °C for 15 s.; 65 °C for 15 s.; 72 °C for 1 min) and 72 °C for 3 min.
(§9) FASTQ-formatted assembled paired-end reads corresponding to the expected sequences were counted and their frequencies calculated. Enrichment of each variant was obtained by the TF/T0 frequency ratio.

The test system of assay [3] is ASF1BN. The assay is described as follows: qB2H v4 binder selection, long-term turbidostat (Chi.Bio), kanamycin 209 μg/ml, NGS enrichment/frequency. The assay is classed as cell-based. To be noted: kanamycin 209 μg/ml (120% MIC50), TF/T0 frequency ratio. As for the experimental part: as §3, §4, §5, §6
Long selection runs (continuous cultures under stable cell density—turbidostat)
Culture conditions before kanamycin-based selection were identical to those in “short selection runs in batches” including T0 sample preparation. However, the turbidostat function of Chi.Bio system^11,12 was used to implement a continuous culture over extended selection periods. […] Samples (10 mL) were recovered at 21 and 29 h after selection initiation and cultured for an additional 3 hours (final OD ~ 2.5) totalizing, respectively, 24 (TF_24h) or 32 hours (TF_32h) selection.
as §7, §8, §9

The next assay deals with T1, SMT3 (Saccharomyces cerevisiae, UniProt Q12306).
T1 construct: SMT3; UNIPROT: Q12306; 2-97; Saccharomyces cerevisiae; expressed in transfected cells; host or cells: E. coli BL21(DE3) transformed with VN594 plus a pBRα rpoA-fusion plasmid
T1 sequence (Q12306 2-97): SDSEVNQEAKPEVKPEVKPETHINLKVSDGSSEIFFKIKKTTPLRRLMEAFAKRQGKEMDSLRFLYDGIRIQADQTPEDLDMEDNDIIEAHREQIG
The assay is described as follows: qB2H v1 fluorescence, SMT3 (SUMO) vs SUMO-interacting motifs. The assay is classed as cell-based, Escherichia coli. Conditions: BL21(DE3), qB2H v1, cI-SMT3 2-97, IPTG(20µM). On the procedure: Precultures of untransformed (for intrinsic fluorescence evaluation) and transformed SB39 cells were diluted (3 μl into 300 μl of fresh medium) in 2-ml microtubes and grown in ThermoMixer C (Eppendorf; 37 °C at 900 rpm) for 2 h. Cultures with an OD600 of approximately 0.5 were then mixed with 100 μl of the same medium containing 4× inducer concentration. […] The induced cultures were grown overnight at 18 °C, diluted (1 μl) in freshly filtered (0.22 μm) phosphate-buffered saline buffer (1 ml per OD unit), and analyzed using guava easyCyte HT (488-nm blue laser). The gating for event analysis was set to minimize background noise (fewer than 100 gated events per 10 μl of sterile phosphate-buffered saline). Ten thousand events were collected per culture, and the MFI was recorded. […] Their MFI were used to normalize those of other conditions (x) using the following equation [Eq. (1)]: Normalized MFIx=MFIx−MFIlow/MFIhigh−MFIlow × 100 (1)
MFI(x) represents the MFI of a given condition or culture. […] Each experiment was conducted in 3 independent assays performed on different days. Figures were generated using Python notebooks in conjunction with Matplotlib.
Interactions involving distinct protein domains and folding variants were assessed using qB2H systems v1, v2, and v3. […] The x-axis labels indicate the qB2H version and the interacting partners, formatted as follows: (qB2H version) Partner_A–Partner_B (inducers). Anhydrotetracycline (aTc) concentrations are reported in ng/mL; IPTG concentrations are given in µM. All experimental conditions, acronyms, and constructs are defined in the Methods section.

In another assay the test system is TNFa. The assay is described as follows: qB2H v3 fluorescence, TNFa vs VHH/ScFv. The class given is cell-based, Homo sapiens. To be noted: SB39, v3, cI-TNFa 77-233, aTc(200ng/mL) + IPTG(1000µM). On the procedure:
as §1, §2
Interactions involving distinct protein domains and folding variants were assessed using qB2H systems v1, v2, and v3. […]

The mark [4] stands for this setting: Batch_Kan261, kanamycin 261 μg/ml (150% MIC50 of ASF1–ip3).
The mark [5] stands for this setting: ChiBio_T24_Kan209, turbidostat 24 h.
[6] abbreviates: ChiBio_T32_Kan209, turbidostat 32 h.
Where [7] appears, read: Batch_Kan348, kanamycin 348 μg/ml (200% MIC50 of ASF1–ip3).

No end group written: not given here.

Turning to WARLARRTAGAGGVTLNGAG [ip4_mutG], in the assay on ASF1BN [1], the qB2H signal entry is “between ip3_mut3A and ip1”.
“KPEAAASAEAERWAQALAALPGSKWARLARRTAGAGGVTLNGAG [AI design n°32 with GSK linker]”: the enrichment with ASF1BN [2] (setting [4]) is reported as 4.25E+00.
On to “KPEAAASAEEEEAAFAALLAALPGSKWARLARRTAGAGGVTLNGAG [AI design n°233 with GSK linker]”, for which the enrichment with ASF1BN [3] (setting [5]) is on record as 1.42E+00; in the assay on ASF1BN [3] (setting [6]), 2.04E+00.
Regarding “KPEAAASSAAERFAAALAALPGSKWARLARRTAGAGGVTLNGAG [AI design n°47 with GSK linker; third of batch Kan[348]]”, the enrichment in the assay on ASF1BN [2] (setting [7]) was determined as 4.66E+00.
As to “AAEEAARFAALLAALP-GSK-ip4_mutG [T32_Kan[209]_top2, AI design n°218 with GSK linker]”, the results for the enrichment in the assay with ASF1BN [3] (setting [5]) and in the assay on ASF1BN [3] (setting [6]) were 7.72E+01 and 8.39E+01, respectively.
For “Srs2_SIM: SUMO-interacting motif, P12954 1164-1174, Saccharomyces cerevisiae (KLNNGEIIVID; UniProt P12954 1164-1174, looked up, fragment)”, in the assay with SMT3, the “Norm. MFI” value stood at 62.95%.
On the same count and under the same terms, the same measure for “CDC48 72-91: CDC48 P25694 region 72-91, SUMO-interacting motif peptide (KKRKDTVLIVLIDDELEDGA; UniProt P25694 72-91, looked up, fragment)”: 46.16%.
On to “KPEAAASAAEEQAAFDALLAALPGSKWARLARRTAGAGGVTLNGAG [AI design n°261 with GSK linker; third of turbidostat T32_Kan[209]]”, for which the results for the enrichment in the assay with ASF1BN [3] (setting [5]) and in the assay on ASF1BN [3] (setting [6]) were 6.25E+00 and 1.11E+01, respectively.
For the substance “KPEAAASDAAARFAAALAALPGSKWARLARRTAGAGGVTLNGAG [AI design n°37 with GSK linker]”, the enrichment in the assay with ASF1BN [2] (setting [4]) was 4.90E+00.
For the substance “CDC48 431-450: CDC48 P25694 region 431-450, SUMO-interacting motif peptide (QQIREKMDLIDLDEDEIDAE; UniProt P25694 431-450, looked up, fragment)”, the “Norm. MFI” value in the assay with SMT3 was determined as 9.91%.
Take “KPEAAASAAAEQAHFAALLAKLPGSKWARLARRTAGAGGVTLNGAG [AI design n°225 with GSK linker]”: the enrichment in the assay on ASF1BN [2] (setting [7]) was found to be 4.18E+00.
On the same count and under the same terms, then “KPEAAASAEEEQARFAALLAALPGSKWARLARRTAGAGGVTLNGAG [AI design n°250 with GSK linker]”, with 4.27E+00.
Consider “KPEAAASAEAEAARFAALLAALPGSKWARLARRTAGAGGVTLNGAG [AI design n°220 with GSK linker]”, for which the enrichment in the assay with ASF1BN [3] (setting [5]) is on record as 4.84E-02; in the assay on ASF1BN [3] (setting [6]) it was 5.25E-02.
Take “KPEAAASMSSHQLWKQWGGGSEKWARLARRTAGAGGVTLNGAG [Rational design n°84 with GSEK linker]”: the enrichment in the assay with ASF1BN [2] (setting [4]) is 2.46E+00.
On the same count and under the same terms, then “KPEAAASAAAEQAAFAALLAALPGSKWARLARRTAGAGGVTLNGAG [AI design n°217 with GSK linker]”, with 3.15E+00.
Regarding “ScFv (D2E7): Adalimumab ScFV; WIPO: WO2011084714A2”, the “Norm. MFI” value in the assay with TNFa was 8.76%.
